The values below come from patent US10428024B2, “Piperidinyl derivatives” (MERCK PATENT GMBH, priority 2016, dated 2019).

The target of one test is PDHK2 (Homo sapiens (Human), UniProt Q15119). Put plainly: Biochemical activity testing of PDHK2: PDC inactivation assay. Particulars: human rec PDHK2, 5 μM ATP, read-out: IC50 PDHK2 (enzyme assay). Put shortly: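 Human recombinant PDHK2 (137 nM final) and porcine heart PDC (20 mU/ml) preincubated with compound 30 min at room temperature, pH 7.0; kinase reaction started with 5 μM ATP, 30 min at 37° C. Residual PDC activity read as NADH fluorescence increase over 45 min; IC50 referenced to inhibitor-free reaction and 3 mM DCA.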

In a further test the target is human PDHK2 (12-407) (Homo sapiens (Human), UniProt Q15119). Put plainly: Isothermal titration calorimetry (ITC). Conditions: 30° C., pH 7.5; read-out: Binding (ITC) KD. As to the method: Isothermal Titration Calorimetry
ITC measurements were performed with a VP-ITC micro calorimeter (Microcal, LLC/GE Healthcare Bio-Sciences AB, Uppsala, Sweden). In general titrations were performed by titrating the protein (50 μM) to the test compound (5 μM) in 12 μl injections. All binding experiments were carried out at 30° C. In general the test compounds were diluted form DMSO stock solutions into the measurement buffer with a maximum final concentration of 1% DMSO. The measurement buffer was 20 mM HEPES, 135 mM KCl, 1 mM TCEP, 2 mM MgCl2, 15 mM NaH2PO4, pH 7.5. The human PDHK2 (12-407) was produced in E. coli as his-tagged protein and purified by affinity chromatography. The tag was removed by side specific proteolysis. Before titration the protein buffer was changed to the measurement buffer containing the same DMSO concentration as the test compound dilution. ITC data analysis was performed using Origin 7 calorimetry software from the same supplier. For most measurements a binding model of one binding site was assumed. According to the applied mathematical model it is possible to calculate the binding constant (KA), the observed binding enthalpy (ΔH^obs) as well as the stoichiometry (N) of the formed complex. Preceding analysis the raw data was corrected for the heats of dilution by extrapolating from the saturation value from the end of titration. In order to allow for direct comparison between the respective experimental series and protein preparations the protein concentration was corrected by referencing titrations to a well behaved standard inhibitor. The apparent stoichiometry values defined the fraction of binding competent protein and compensated for relative errors in protein concentration measurements. This corrected protein concentration was used to set up ITC experiment series with test compounds. Any deviations from ideal 1:1 stoichiometry observed here were attributed to errors in compound concentration. This nominal compound concentration was corrected as well to achieve 1:1 stoichiometry in the fit.

Test [1] relates to PDH-E1alpha (pSer300) in HEK293T cells. Description: Cellular immunofluorescence assay (Anti-PDH-E1alpha (pSer300)) in HEK293T cells. The test is classed as cell-based. Conditions: Homo sapiens, HEK-293T, 5 hours incubation, read-out: IC50 (cell data). Here is the method:
Cellular Assay for Determination of Compound Activities
Compound activities were determined in a cellular immunofluorescence assay.
Human HEK293T cells were seeded into black 384-well plates with clear bottom and grown overnight.
Next day, test compounds were added to the wells and the plates incubated for 5 hours. Following this, cells were fixed with formaldehyde, permeabilised and blocked. The primary antibody, Anti-PDH-E1alpha (pSer300), AP1064 (Merck Millipore) was added and incubated overnight in the plate wells. Next, cells were washed and the secondary antibody, Alexa Fluor 488, goat anti-rabbit ab (A-11008, Invitrogen) was added together with Hoechst 33258 (H3569, Invitrogen) and incubated for 1 hour in the plate wells. Finally, cells were washed and the plates were measured on the laser scanning cytometer acumen hci (TTpLabtech).
The raw data were normalized against a pharmacological inhibitor control and dose response curves were generated by plotting the percent effect values using the software package Genedata screener (Genedata).

With `C[C@@H]1CN(C(=O)[C@@](C)(O)C(F)(F)F)CC[C@@H]1N(C)C(=O)c1cnn(C)c1` [Compound A56, N,1-Dimethyl-N-[(3R,4S)-3-methyl-1-[(2R)-3,3,3-trifluoro-2-hydroxy-2-methylpropanoyl]piperidin-4-yl]-1H-pyrazole-4-carboxamide], the IC50 at PDHK2 is 230 nM; in test [1], 910 nM. In addition, at human PDHK2 (12-407), the Kd was 130 nM.
For `C[C@@H]1CN(C(=O)[C@@](C)(O)C(F)(F)F)CC[C@@H]1N(C)C(=O)c1ccc(Cl)cc1F` [Compound A59, 4-Chloro-2-fluoro-N-methyl-N-[(3R,4S)-3-methyl-1-[(2R)-3,3,3-trifluoro-2-hydroxy-2-methylpropanoyl]piperidin-4-yl]benzamide], the IC50 is 98 nM on PDHK2 and 53 nM in test [1]. Moreover, the dissociation constant Kd at human PDHK2 (12-407) amounted to 20 nM.
Consider `C[C@@H]1CN(C(=O)[C@@](C)(O)C(F)(F)F)CC[C@@H]1N(C)C(=O)c1ccc(C(F)(F)F)cc1` [Compound A62, N-Methyl-N-[(3R,4S)-3-methyl-1-[(2R)-3,3,3-trifluoro-2-hydroxy-2-methylpropanoyl]piperidin-4-yl]-4-(trifluoromethyl)benzamide], for which the IC50 (at PDHK2; in test [1]) was 290 nM each time. The Kd on human PDHK2 (12-407) is 44 nM.
Take `CCN(C(=O)c1ccc(C)cc1F)C1CCN(C(=O)[C@@](C)(O)C(F)(F)F)CC1` [Compound A64, N-Ethyl-2-fluoro-4-methyl-N-[1-((R)-3,3,3-trifluoro-2-hydroxy-2-methyl-propionyl)-piperidin-4-yl]-benzamide]: the IC50 at PDHK2 was 410 nM; in test [1] it was 310 nM. Moreover, the Kd on human PDHK2 (12-407) worked out at 69 nM.
With `Cc1ccc(C(=O)N(C(C)C)C2CCN(C(=O)[C@@](C)(O)C(F)(F)F)CC2)c(F)c1` [Compound A65, 2-Fluoro-N-isopropyl-4-methyl-N-[1-((R)-3,3,3-trifluoro-2-hydroxy-2-methyl-propionyl)-piperidin-4-yl]-benzamide], the IC50 at PDHK2 was found to be 1300 nM; in test [1], 590 nM. Also, the dissociation constant (Kd) at human PDHK2 (12-407) came out at 140 nM.
Consider `CCN(C(=O)c1ccc(C#N)cc1)C1CCN(C(=O)[C@@](C)(O)C(F)(F)F)CC1` [Compound A66, 4-Cyano-N-ethyl-N-[1-((R)-3,3,3-trifluoro-2-hydroxy-2-methyl-propionyl)-piperidin-4-yl]-benzamide], for which the IC50 was 2100 nM on PDHK2 and 2700 nM in test [1]. Moreover, the Kd on human PDHK2 (12-407) came out at 350 nM.
In the case of `CC(C)N(C(=O)c1ccc(C#N)cc1)C1CCN(C(=O)[C@@](C)(O)C(F)(F)F)CC1` [Compound A67, 4-Cyano-N-isopropyl-N-[1-((R)-3,3,3-trifluoro-2-hydroxy-2-methyl-propionyl)-piperidin-4-yl]-benzamide], the IC50 at PDHK2 worked out at 1600 nM; in test [1], 4100 nM. The equilibrium dissociation constant (Kd) at human PDHK2 (12-407) amounted to 470 nM.
